{"source": "patent US5789182A", "about": "“System for assaying binding to a heparin-binding growth factor receptor” (The Children's Medical Center Corporation, priority 1993, dated 1998)", "key": {"[1]": {"tested_on": "endothelial cell migration", "details": "cited from earlier work"}, "angiogenesis": {"tested_on": "angiogenesis", "details": "associated with embryogenesis and inflammation; cited from earlier work"}, "mouse FGF receptor (mFR)": {"tested_on": "mouse FGF receptor (mFR)", "assay": "High-affinity receptor binding of 125I-bFGF to CHO cells transfected with mFR", "details": "for high-affinity binding of bFGF: no heparin", "excerpt": "The following cell lines were used: Balb/c fibroblasts; NIH 3T3 cells; CHO K1 cells (parental wild-type CHO cells, available as ATCC Accession No. CCL 61); clones 803 and 677, each of which is a clone of glucuronosyltransferase-deficient CHO K1 cells which lack cell-surface HSPG (in addition, 677 cells overexpress the closely related GAG, chondroitin sulfate); and clone 606, HS-N-sulfotransferase-deficient CHO K1-derived cells which express normal levels of (but undersulfated) cell surface HSPG. The mutant clones 803, 677, and 606 were obtained from Dr. Jeffrey D. Esko. Wild-type and mutant CHO cells were routinely grown in Hams F12 medium supplemented with 10% bovine fetal calf serum and L-glutamine (Sigma). For transfection of the murine FGF receptor, approximately 4×10^7 cells were trypsinized, washed in ice cold PBS, and incubated with 50 μg Mo/mFR/SV and 8 μg of CMV B-gal (source; used as a control for transfection efficiency) for 10 min at 4° C. Electroporation was done in a Bio-Rad Gene Pulser at 960 uF and 300V. Cells were then plated in 3 cm, 6-well plates, medium was replaced after 24 hours, and b-gal and binding assays were performed 36 to 48 hours after electroporation. Routinely, 30 to 40% of the cells stained positive for b-gal.\n(§1) Subconfluent cultures of about 2×10^5 cells in a 30 mm dish (Costar) were precooled to 4° C., washed twice with cold Dulbecco's modified Eagle's medium supplemented with 25 mM HEPES pH 7.5 and 1% bovine serum albumin (DMEM/BSA), and incubated for 2 hours at 4° C. with ^125 I-bFGF (50 μCi/ mmole) in DMEM/BSA at different concentrations and in the presence or absence of heparin, as determined by the experimental protocol. The binding medium was then discarded and the cells washed twice with ice cold PBS and twice with DMEM/BSA. To determine the amount of low-affinity-bound bFGF, the cells were incubated twice for 5 minutes with cold PBS, pH 7.5, containing 1.6M NaCl (low-affinity-bound bFGF could be totally removed using salt concentrations of 0.8M and higher--data not shown), and the radioactivity of the salt extraction solution assayed in a gamma counter. High-affinity-bound bFGF was determined by a 2M NaCl (pH 4.0) extraction (Moscatelli, J. Cell Biol. 107:753-759, 1988). Nonspecific binding was determined by including a 100-fold excess of unlabeled bFGF. After binding in the presence or absence of heparin, bFGF-receptor crosslinking with disuccinimidyl suberate (DSS) was performed as described (Yayon and Klagsbrun, Proc. Natl. Acad. Sci. USA 87:5346-5350, 1990). Briefly, cells were washed twice with PBS and then incubated with 0.15 mM DSS in PBS for 15 minutes at room temperature. The cells were then washed with a solution of 50 mM Tris, pH 7.4, and 100 mM glycine; and scraped and lysed in a small volume of lysis buffer containing 150 mM NaCl, 20 mM Tris pH 8.0, 1mM MgCl2, 0.1 mM ZnCl2, 0.5% NP-40 (Sigma), 1 μg aprotinin (Sigma), 1 μg/ml leupeptin (Sigma), and 2 mM PMSF (phenylmethylsulfonyl fluoride; Sigma). The cell lysate, cleared by spinning down nuclei and cell debris, was boiled and then electrophoresed under reducing conditions on a 7% SDS polyacrylamide gel. After drying the gel, an autoradiogram was prepared using Kodak X-Omat AR film (Eastman Kodak Co., Rochester, N.Y.)."}, "[2]": {"tested_on": "cell surface heparin sulfate proteoglycans (low-affinity binding sites)", "assay": "Low-affinity binding of 125I-bFGF to cells (1.6M NaCl extraction)", "method": "as §1"}, "[3]": {"tested_on": "high-affinity FGF receptors", "assay": "High-affinity binding of 125I-bFGF to untransfected CHO cells", "details": "untransfected wild-type and mutant CHO cells, compared to NIH-3T3 cells", "method": "as §1, with “The cells were then washed with a solution of 50 mM Tris, pH 7.4, and 100 mM glycine; and scraped and lysed in a small volume of lysis buffer containing 150 mM NaCl, 20 mM Tris pH 8.0, 1mM MgCl2, 0.1 mM ZnCl2, 0.5% NP-40 (Sigma), 1 μg aprotinin (Sigma), 1 μg/ml leupeptin (Sigma), and 2 mM PMSF (phenylmethylsulfonyl fluoride; Sigma). The cell lysate, cleared by spinning down nuclei and cell debris, was boiled and then electrophoresed under reducing conditions on a 7% SDS polyacrylamide gel. After drying the gel, an autoradiogram was prepared using Kodak X-Omat AR film (Eastman Kodak Co., Rochester, N.Y.).” left out"}, "mouse FGF receptor": {"tested_on": "mouse FGF receptor", "assay": "Chemical crosslinking of 125I-bFGF to mFR-transfected CHO cells (DSS)", "details": "HS-deficient cells; unless heparin was included in the binding medium", "method": "as §1, with “The cells were then washed with a solution of 50 mM Tris, pH 7.4, and 100 mM glycine; and scraped and lysed in a small volume of lysis buffer containing 150 mM NaCl, 20 mM Tris pH 8.0, 1mM MgCl2, 0.1 mM ZnCl2, 0.5% NP-40 (Sigma), 1 μg aprotinin (Sigma), 1 μg/ml leupeptin (Sigma), and 2 mM PMSF (phenylmethylsulfonyl fluoride; Sigma). The cell lysate, cleared by spinning down nuclei and cell debris, was boiled and then electrophoresed under reducing conditions on a 7% SDS polyacrylamide gel. After drying the gel, an autoradiogram was prepared using Kodak X-Omat AR film (Eastman Kodak Co., Rochester, N.Y.).” left out"}, "[4]": {"tested_on": "FRAP (mouse bFGF receptor/alkaline phosphatase fusion)", "assay": "Cell-free assay: 125I-bFGF binding to FRAP fusion protein, immunoprecipitated with AP-specific antibody", "method": "Conditioned medium from FRAP-A2 was assayed for its ability to bind ^125 I-bFGF by combining in the presence or in the absence of a standard amount of heparin, an aliquot of conditioned medium with a standard amount of ^125 I-bFGF and a standard amount of monoclonal antibody specific for placental alkaline phosphatase (Medix Biotech, Foster City, Calif.) coupled to CNBr-activated sepharose beads (Pharmacia, Piscataway, N.J.). The mixture was incubated for 90 min at 4° C. and centrifuged to pellet the beads, which were then washed two times with 0.5 ml PBS and re-pelleted before determining the amount of bound ^125 I in a gamma counter. […] In the experiment illustrated in FIG. 13, varying amounts of FRAP-A2-conditioned medium were combined with heparin and ^125 I-bFGF, while in FIG. 14 the variable was the concentration of heparin in the assay mix."}, "[5]": {"tested_on": "serum-starved Balb/c fibroblasts", "assay": "Biological activity of iodinated bFGF", "type": "cell-based", "details": "ability to stimulate serum-starved Balb/c fibroblasts", "excerpt": "Recombinant human bFGF was labeled with ^125 I (17 Ci/mg) (New England Nuclear, Boston, MA) using Iodo-beads (Pierce Chemical Co., Rockford, IL) according to the manufacturer's instructions. […] When subjected to SDS-PAGE, ^125 I-bFGF migrated as a single band in the same position as unlabeled bFGF."}, "[6]": {"assay": "Degradation of bFGF in binding medium (gel electrophoresis, biological activity assay)", "type": "physicochemical", "details": "aliquots at end of each experiment, with or without heparin", "excerpt": "The heparin-dependent high-affinityreceptor binding was similar to that reported for non-heparin-dependent binding of bFGF to cells which naturally express both HSPG and high-affinity receptors for bFGF (Neufeld et al., J. Biol. Chem. 261:5631-5637, 1985)."}}}
{"substance": "Protamine", "values": [{"measurement": "effect on heparin-stimulated endothelial cell migration", "setting": "[1]", "value": "inhibits the ability of heparin to stimulate endothelial cell migration"}, {"measurement": "effect on angiogenesis", "setting": "angiogenesis", "value": "inhibits angiogenesis"}]}
{"substance": "^125 I-bFGF: recombinant human bFGF labeled with 125I using Iodo-beads [reference compound]", "values": [{"measurement": "125I-bFGF bound relative to untransfected cells", "setting": "mouse FGF receptor (mFR); wild-type CHO cells transiently transfected with mFR", "value": "8-10 fold"}]}
{"substance": "bFGF: recombinant human basic fibroblast growth factor, gift from Takeda Inc.", "values": [{"measurement": "reduction of low-affinity binding of bFGF compared to wild-type CHO cells", "setting": "[2]; CHO clone 606 (undersulfated HSPG)", "value": "more than 50%"}, {"measurement": "low-affinity binding of bFGF", "setting": "[2]; clone 677 cells (undetectable HSPG, overexpress chondroitin sulfate)", "value": "Absence of low-affinity bFGF binding"}, {"measurement": "low-affinity binding of bFGF", "setting": "[2]; clone 803 cells (5%-10% of wild-type HSPG)", "value": "did not bind significant amounts"}, {"measurement": "low-affinity binding of bFGF", "setting": "[2]; wild-type CHO K1 cells", "value": "comparable to that found for NIH-3T3 cells"}, {"measurement": "high-affinity binding of bFGF", "setting": "[3]", "value": "very little high-affinity binding"}, {"measurement": "character of bFGF-receptor binding", "setting": "mouse FGF receptor (mFR); HS-deficient cells, 40 ng/ml heparin", "value": "specific, saturable, single class of high-affinity binding sites"}, {"measurement": "competition of heparin-dependent high-affinity receptor binding of 125I-bFGF", "setting": "mouse FGF receptor (mFR); excess of unlabeled bFGF", "value": "specifically competed out"}, {"measurement": "high-affinity binding of bFGF", "setting": "mouse FGF receptor (mFR); mFR-transfected HS-deficient mutants", "value": "none of the similarly transfected HS-deficient mutants showed significant high-affinity binding"}, {"measurement": "high-affinity binding of bFGF", "setting": "mouse FGF receptor (mFR); wild-type CHO K1 cells transfected with Mo/mFR/SV", "value": "high levels of high-affinity binding"}, {"measurement": "crosslinking of bFGF to high-affinity receptors", "setting": "mouse FGF receptor", "value": "could not be crosslinked"}, {"measurement": "bound 125I with increasing concentrations of unlabelled FGF", "setting": "[4]; competition assay (FIG. 12)", "value": "decrease"}, {"measurement": "binding of labelled bFGF to fusion protein", "setting": "[4]; presence vs absence of heparin or a heparin-like molecule", "value": "in the presence but not in the absence"}, {"measurement": "biological activity after iodination", "setting": "[5]", "value": "Full biological activity"}, {"measurement": "degradation of bFGF in binding medium", "setting": "[6]", "value": "no signs of degradation"}]}
